How the values were obtained:
Type in all cases: in vivo
Poa annua (POAAN) = experiment: Herbicidal early post-emergence action (Table A3); details: 1900 g/ha; scored visually 9 to 12 days after treatment; 100% = plants have died, 0% = like control plants
Method: (§1) Seeds of monocotyledonous and dicotyledonous weed plants were placed in 96-well microtiter plates in quartz sand and grown in a climatized chamber under controlled growth conditions. 5 to 7 days after sowing, the test plants were treated at the cotyledon stage. The compounds according to the invention, formulated in the form of emulsion concentrates (EC), were applied with a water application rate of the equivalent of 2200 liters per hectare. After the test plants had been left to stand in the climatized chamber for 9 to 12 days under optimum growth conditions, the effect of the preparations was scored visually in comparison to untreated controls. For example, 100% activity=the plants have died, 0% activity=like control plants. Tables A1 to A8 below show the effects of selected compounds of the general formula (I) according to Table 1 on various harmful plants and an application rate corresponding to 1900 g/ha, which were obtained by the experimental procedure mentioned above.

[1] = test system: harmful plants AGSTE, DIPTE, LOLPE, MATCH, POAAN, SETVI, STEME and VERPE; experiment: Herbicidal early post-emergence action, summary of Tables A1-A8; details: application rate of 1900 g of active ingredient per hectare; summary in words
Method: as §1, with “plants.” for “plants. Tables A1 to A8 below show the effects of selected compounds of the general formula (I) according to Table 1 on various harmful plants and an application rate corresponding to 1900 g/ha, which were obtained by the experimental procedure mentioned above.”
Tables A1 to A8 below show the effects of selected compounds of the general formula (I) according to Table 1 on various harmful plants and an application rate corresponding to 1900 g/ha, which were obtained by the experimental procedure mentioned above.
As the results of Tables A1-A8 show, compounds no.

Agrostis tenuis (AGSTE) = experiment: Herbicidal early post-emergence action (Table A1); details: 1900 g/ha; scored visually 9 to 12 days after treatment; 100% = plants have died, 0% = like control plants
Method: as §1

Structure (SMILES) | Early post-emergence effect against Poa annua (POAAN) (Poa annua (POAAN)) [%] | herbicidal activity against the harmful plants of Tables A1-A8 in early post-emergence treatment [1] | Early post-emergence effect against Agrostis tenuis (AGSTE) (Agrostis tenuis (AGSTE)) [%]
COc1ccc(-c2cc(C(F)F)no2)c(Oc2ncc(Cl)cc2F)c1 [Example 1-37] | 80 | very good herbicidal activity | 
Fc1ccc(Oc2cccc(F)c2-c2cc(C(F)F)no2)nc1 [Example 1-41] | 100 | very good herbicidal activity | 80
CSc1cccc(Oc2ccc(Cl)cn2)c1-c1cc(C(F)F)no1 [Example 1-56] | 100 | very good herbicidal activity | 100

From patent US12052991B2, “Substituted pyridinyloxybenzenes and salts thereof and use thereof as herbicidal agents” (Bayer Aktiengesellschaft, priority 2018, dated 2024)
